# ChEMBL document CHEMBL3817751, “Exploitation of a Novel Binding Pocket in Human Lipoprotein-Associated Phospholipase A2 (Lp-PLA2) Discovered through X-ray Fragment Screening” (J Med Chem, 2016)
# What was measured:
# [1] = target: T1, Platelet-activating factor acetylhydrolase (Homo sapiens, UniProt Q13093); test: Inhibition of human recombinant Lp-PLA2 using PED6 as substrate preincubated for 30 mins followed by substrate addition measured for 20 mins by fluorescence assay
# T1 sequence (Q13093 whole entry): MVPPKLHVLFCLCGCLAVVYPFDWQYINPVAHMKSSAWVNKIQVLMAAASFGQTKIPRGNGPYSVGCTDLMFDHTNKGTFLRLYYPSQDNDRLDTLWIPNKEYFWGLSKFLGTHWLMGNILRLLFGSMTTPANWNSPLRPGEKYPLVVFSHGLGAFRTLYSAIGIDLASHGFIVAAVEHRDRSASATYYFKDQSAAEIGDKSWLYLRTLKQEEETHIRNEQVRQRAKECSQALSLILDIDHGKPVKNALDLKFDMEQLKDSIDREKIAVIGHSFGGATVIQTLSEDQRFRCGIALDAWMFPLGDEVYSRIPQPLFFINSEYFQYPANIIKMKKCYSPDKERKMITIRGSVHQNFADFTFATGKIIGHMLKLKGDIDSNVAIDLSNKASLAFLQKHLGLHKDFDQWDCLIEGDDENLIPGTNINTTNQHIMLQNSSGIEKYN
# [2] = target: T1, Platelet-activating factor acetylhydrolase; test: Binding affinity to N-terminal His6-tagged Lp-PLA2 (47 to 429 residues) (unknown origin) expressed in sf21 insect cells by ITC assay
# [3] = target: T1, Platelet-activating factor acetylhydrolase; test: Inhibition of human recombinant Lp-PLA2 using 2-thio-PAF as substrate after 20 mins by CPM-based fluorescence assay
# [4] = Inhibition of human recombinant PLA2-7B using 2-thio-PAF as substrate after 20 mins by CPM-based fluorescence assay
# Homo sapiens = organism: Homo sapiens; test: Selectivity ratio of IC50 for human recombinant PLA2-7B to IC50 for human recombinant Lp-PLA2
# [5] = target: T1, Platelet-activating factor acetylhydrolase; test: Inhibition of Lp-PLA2 in human whole plasma using 2-thio-PAF as substrate preincubated for 15 mins followed by substrate addition measured after 3 mins by CPM-based fluorescence assay; type: cell-free
# [6] = Lipophilicity, log D of the compound at pH 7.4 by reversed phase HPLC method; type: physicochemical; conditions: buffer
# [7] = Apparent permeability of the compound after 3 hrs by HPLC-UV method; type: physicochemical; conditions: not told
# [8] = Solubility of the compound in pH 7.4 phosphate buffered saline after 1 hr by chemiluminescent nitrogen detection assay; type: physicochemical
# [9] = Binding affinity to human serum albumin/alpha-1 acidglycoprotein after 6 mins by HPLC method; type: ADME; conditions: human serum albumin/alpha-1 acid glycoprotein, read-out: PB (converted)
IC50 [1] [µM],IC50 [3] [µM],IC50 [4] [µM],IC50 [5] [µM],SMILES,other results
> 1000,,,,CC1(C)NC(=O)NC1=O,
500,,,,O=C(c1cccc(F)c1)N1CC=CC1,Kd [2]: 980 µM
,1.7,11,,Cc1ccccc1-c1cc(Nc2nccs2)ccc1C,
,0.23,89,,Cc1ccccc1-c1cc(C(=O)N2CC=CC2)ccc1C,
,30,> 100,,Cc1ccccc1-c1cc(C(=O)N2CCCC2)ccc1C,
100,100,43,,Cc1ccc(N)cc1-c1ccccc1Cl,
,0.23,> 10,7.1,Cc1ccccc1-c1cc(Nc2nc(CCCO)cs2)ccc1C,Ratio IC50 (Homo sapiens): > 40
,2,3.2,,Cc1ccccc1-c1cc(C(=O)c2nccs2)ccc1C,
1000,,,,CC(C)COc1cc(=O)n(C)c(=O)n1C,
,0.18,> 10,,Cc1ccc(C(=O)N2CC=CC2)cc1-c1ccccc1Cl,
,0.0024,> 10,0.028,COC(CO)Cc1csc(Nc2cc(-c3ccccc3C)c(C)cc2OCCN)n1 (racemic),chromatographic logD [6]: 3.4; Papp at 3 h [7]: 21 ×10⁻⁶ cm/s; solubility at 1 h [8]: 195 µM; fraction unbound at 0.1 h [9]: 0.03
,0.0014,> 1,0.018,COC(CO)Cn1ccc(Nc2cc(-c3ccccc3C)c(C)cc2OCCN)n1 (racemic),chromatographic logD [6]: 3.2; Papp at 3 h [7]: 13 ×10⁻⁶ cm/s; solubility at 1 h [8]: 302 µM; fraction unbound at 0.1 h [9]: 0.05
,0.0095,> 10,0.56,COC(CO)Cc1csc(Nc2ccc(C)c(-c3ccccc3C)c2)n1 (racemic),Ratio IC50 (Homo sapiens): > 1000
,0.0036,6.1,0.32,COc1cc(C)c(-c2ccccc2C)cc1Nc1nc(CC(CO)OC)cs1 (racemic),
> 1000,,,,NS(=O)(=O)c1ccccc1 [BENZENESULFONAMIDE],Kd [2]: 3400 µM
,,0.063,,CCN(CC)CCN(Cc1ccc(-c2ccc(C(F)(F)F)cc2)cc1)C(=O)Cn1c(SCc2ccc(F)cc2)nc(=O)c2c1CCC2 [DARAPLADIB],chromatographic logD [6]: 6.2; Papp at 3 h [7]: 23 ×10⁻⁶ cm/s; solubility at 1 h [8]: 8 µM; fraction unbound at 0.1 h [9]: 0.02
